Results taken from BigSolDB 2.1.

COC(=O)Nc1nc2ccc(Sc3ccccc3)cc2[nH]1
solubility (mole fraction)
Details	in 1,4-dioxane	in acetone	in acetonitrile	in ethanol	in ethyl acetate	in isopropanol	in methanol	in n-butanol	in n-propanol
273.15 K	–	0.000154	1.31e-05	4.24e-05	0.000266	2.01e-05	3.69e-05	7.43e-05	5.94e-05
278.15 K	–	0.000167	1.53e-05	4.62e-05	0.000308	2.39e-05	3.99e-05	8.03e-05	6.58e-05
283.15 K	–	0.00018	1.79e-05	5.02e-05	0.000361	2.8e-05	4.28e-05	8.71e-05	7.33e-05
288.15 K	0.0011	0.000194	2.06e-05	5.44e-05	0.000415	3.24e-05	4.57e-05	9.47e-05	8.16e-05
293.15 K	0.00127	0.000209	2.36e-05	5.92e-05	0.000468	3.65e-05	4.86e-05	0.000102	8.97e-05
298.15 K	0.00145	0.000225	2.68e-05	6.41e-05	0.000533	4.12e-05	5.14e-05	0.000111	9.97e-05
303.15 K	0.00166	0.000241	3.06e-05	6.99e-05	0.000601	4.62e-05	5.54e-05	0.00012	0.000111
308.15 K	0.00189	0.00026	3.47e-05	7.62e-05	0.000684	5.2e-05	5.94e-05	0.000132	0.000123
313.15 K	0.00214	0.00028	3.99e-05	8.36e-05	0.000768	5.82e-05	6.33e-05	0.000143	0.000137
